Test results as given in ChEMBL document CHEMBL5257089, “Gamabufotalin Induces Apoptosis and Cytoprotective Autophagy through the mTOR Signaling Pathway in Hepatocellular Carcinoma” (J Nat Prod, 2023).
Activity calls are given as the source filed them. The calls are words filed in the database; no cut-off is given here.

Legend:
[1] = test system: Huh-7; test: Induction of autophagy in human Huh-7 cells harbouring mCherry-egfp-LC3 assessed as reduction in red puncta ratio at 10 nM incubated for 15 mins in presence of gamabufotalin by laser scanning confocal microscopic analysis; assay type: functional, cell-based
[2] = test system: Hep 3B2; test: Induction of apoptosis in human Hep3B cells assessed as viable cells at 10 nM incubated for 48 hrs by Annexin V-FITC/PI staining based flow cytometry method (Rvb =95.7%); assay type: functional; conditions: read-out: Activity
[3] = test system: Huh-7; test: Induction of apoptosis in human Huh-7 cells assessed as necrotic cells at 10 nM incubated for 48 hrs by Annexin V-FITC/PI staining based flow cytometry method (reference value: 1.9%); assay type: functional
[4] = test system: Huh-7; test: Induction of apoptosis in human Huh-7 cells assessed as late apoptotic cells at 10 nM incubated for 48 hrs by Annexin V-FITC/PI staining based flow cytometry method (reference value: 3.8%); assay type: functional
[5] = test system: Huh-7; test: Induction of apoptosis in human Huh-7 cells assessed as late apoptotic cells at 10 nM incubated for 48 hrs in presence of gamabufotalin by Annexin V-FITC/PI staining based flow cytometry method (reference value: 3.8%); assay type: functional
[6] = test system: Hep 3B2; test: Induction of apoptosis in human Hep3B cells assessed as late apoptotic cells at 10 nM incubated for 48 hrs by Annexin V-FITC/PI staining based flow cytometry method (reference value: 2.2%); assay type: functional
[7] = test system: Huh-7; test: Induction of apoptosis in human Huh-7 cells assessed as upregulation of bax level at 10 uM incubated for 48 hrs in presence of gamabufotalin by immunoblot analysis; assay type: functional, cell-based
[8] = test system: Huh-7; test: Induction of apoptosis in human Huh-7 cells assessed as upregulation of PARP level at 10 uM incubated for 48 hrs in presence of gamabufotalin by immunoblot analysis; assay type: functional, cell-based
[9] = test system: Hep 3B2; test: Induction of apoptosis in human Hep3B cells assessed as viable cells at 10 nM incubated for 48 hrs in presence of gamabufotalin by Annexin V-FITC/PI staining based flow cytometry method (Rvb =95.7%); assay type: functional; conditions: read-out: Activity
[10] = test system: Hep 3B2; test: Induction of autophagy in human Hep3B cells assessed as restoration of mTOR phosphorylation expression at 10 uM incubated for 48 hrs in presence of gamabufotalin by immunoblot analysis; assay type: functional, cell-based
[11] = test system: Hep 3B2; test: Induction of apoptosis in human Hep3B cells assessed as upregulation of cleaved caspase-3 level at 10 uM incubated for 48 hrs in presence of gamabufotalin by immunoblot analysis; assay type: functional, cell-based
[12] = test system: Huh-7; test: Induction of autophagy in human Huh-7 cells assessed as restoration of mTOR phosphorylation expression at 10 uM incubated for 48 hrs in presence of gamabufotalin by immunoblot analysis; assay type: functional, cell-based
[13] = test system: Huh-7; test: Induction of apoptosis in human Huh-7 cells assessed as upregulation of caspase-3 level at 10 uM incubated for 48 hrs in presence of gamabufotalin by immunoblot analysis; assay type: functional, cell-based
[14] = test system: Huh-7; test: Induction of autophagy in human Huh-7 cells assessed as upregulation of p62 at 10 uM incubated for 48 hrs in presence of gamabufotalin by immunoblot analysis; assay type: functional, cell-based
[15] = test system: Hep 3B2; test: Induction of apoptosis in human Hep3B cells assessed as reduction in bcl-2 level at 10 uM incubated for 48 hrs in presence of gamabufotalin by immunoblot analysis; assay type: functional, cell-based
[16] = test system: Hep 3B2; test: Induction of apoptosis in human Hep3B cells assessed as early apoptotic cells at 10 nM measured after 48 hrs by Annexin V-FITC/PI staining based flow cytometry method (reference value: 1.3%); assay type: functional
[17] = test system: Hep 3B2; test: Induction of apoptosis in human Hep3B cells assessed as upregulation of cleaved PARP level at 10 uM incubated for 48 hrs in presence of gamabufotalin by immunoblot analysis; assay type: functional, cell-based
[18] = test system: Huh-7; test: Induction of apoptosis in human Huh-7 cells assessed as viable cells at 10 nM incubated for 48 hrs by Annexin V-FITC/PI staining based flow cytometry method (reference value: 90.0%); assay type: functional; conditions: read-out: Activity
[19] = test system: Huh-7; test: Induction of apoptosis in human Huh-7 cells assessed as necrotic cells at 10 nM incubated for 48 hrs in presence of gamabufotalin by Annexin V-FITC/PI staining based flow cytometry method (reference value: 1.9%); assay type: functional
[20] = test system: Huh-7; test: Induction of apoptosis in human Huh-7 cells assessed as early apoptotic cells at 10 nM incubated for 48 hrs by Annexin V-FITC/PI staining based flow cytometry method (reference value: 4.3%); assay type: functional
[21] = test system: Hep 3B2; test: Induction of autophagy in human Hep3B cells assessed as restoration of ULK1 phosphorylation expression at 10 uM incubated for 48 hrs in presence of gamabufotalin by immunoblot analysis; assay type: functional, cell-based
[22] = test system: Hep 3B2; test: Induction of autophagy in human Hep3B cells assessed as upregulation of p62 at 10 uM incubated for 48 hrs in presence of gamabufotalin by immunoblot analysis; assay type: functional, cell-based
[23] = test system: Huh-7; test: Induction of apoptosis in human Huh-7 cells assessed as upregulation of cleaved PARP level at 10 uM incubated for 48 hrs in presence of gamabufotalin by immunoblot analysis; assay type: functional, cell-based
[24] = test system: Huh-7; test: Induction of autophagy in human Huh-7 cells harbouring mCherry-egfp-LC3 assessed as reduction in yellow puncta ratio at 10 nM incubated for 15 mins in presence of gamabufotalin by laser scanning confocal microscopic analysis; assay type: functional, cell-based
[25] = test system: Hep 3B2; test: Induction of apoptosis in human Hep3B cells assessed as necrotic cells at 10 nM incubated for 48 hrs in presence of gamabufotalin by Annexin V-FITC/PI staining based flow cytometry method (reference value: 0.7%); assay type: functional
[26] = test system: Hep 3B2; test: Induction of apoptosis in human Hep3B cells assessed as early apoptotic cells at 10 nM measured after 48 hrs in presence of gamabufotalin by Annexin V-FITC/PI staining based flow cytometry method (reference value: 1.3%); assay type: functional
[27] = test system: Hep 3B2; test: Induction of autophagy in human Hep3B cells assessed as downregulation of LC3II/LC3I ratio at 10 uM incubated for 48 hrs in presence of gamabufotalin by immunoblot analysis; assay type: functional, cell-based
[28] = test system: Hep 3B2; test: Induction of apoptosis in human Hep3B cells assessed as upregulation of PARP level at 10 uM incubated for 48 hrs in presence of gamabufotalin by immunoblot analysis; assay type: functional, cell-based
[29] = test system: Hep 3B2; test: Induction of apoptosis in human Hep3B cells assessed as late apoptotic cells at 10 nM incubated for 48 hrs in presence of gamabufotalin by Annexin V-FITC/PI staining based flow cytometry method (reference value: 2.2%); assay type: functional
[30] = test system: Hep 3B2; test: Induction of autophagy in human Hep3B cells harbouring mCherry-egfp-LC3 assessed as reduction in yellow puncta ratio at 10 nM incubated for 15 mins in presence of gamabufotalin by laser scanning confocal microscopic analysis; assay type: functional, cell-based
[31] = test system: Hep 3B2; test: Induction of autophagy in human Hep3B cells harbouring mCherry-egfp-LC3 assessed as reduction in red puncta ratio at 10 nM incubated for 15 mins in presence of gamabufotalin by laser scanning confocal microscopic analysis; assay type: functional, cell-based
[32] = test system: Huh-7; test: Induction of apoptosis in human Huh-7 cells assessed as early apoptotic cells at 10 nM incubated for 48 hrs in presence of gamabufotalin by Annexin V-FITC/PI staining based flow cytometry method (reference value: 4.3%); assay type: functional
[33] = test system: Huh-7; test: Induction of apoptosis in human Huh-7 cells assessed as viable cells at 10 nM incubated for 48 hrs in presence of gamabufotalin by Annexin V-FITC/PI staining based flow cytometry method (reference value: 90.0%); assay type: functional; conditions: read-out: Activity
[34] = test system: Hep 3B2; test: Induction of apoptosis in human Hep3B cells assessed as upregulation of bax level at 10 uM incubated for 48 hrs in presence of gamabufotalin by immunoblot analysis; assay type: functional, cell-based
[35] = test system: Huh-7; test: Induction of apoptosis in human Huh-7 cells assessed as reduction in bcl-2 level at 10 uM incubated for 48 hrs in presence of gamabufotalin by immunoblot analysis; assay type: functional, cell-based
[36] = test system: Hep 3B2; test: Induction of autophagy in human Hep3B cells assessed as reduction in autophagic vesicles at 10 nM incubated for 48 hrs in presence of gamabufotalin by transmission electron microscopy based analysis; assay type: functional, cell-based
[37] = test system: Huh-7; test: Induction of autophagy in human Huh-7 cells assessed as reduction in autophagic vesicles at 10 nM incubated for 48 hrs in presence of gamabufotalin by transmission electron microscopy based analysis; assay type: functional, cell-based
[38] = test system: Huh-7; test: Induction of autophagy in human Huh-7 cells assessed as downregulation of LC3II/LC3I ratio at 10 uM incubated for 48 hrs in presence of gamabufotalin by immunoblot analysis; assay type: functional, cell-based
[39] = test system: Huh-7; test: Induction of autophagy in human Huh-7 cells assessed as restoration of ULK1 phosphorylation expression at 10 uM incubated for 48 hrs in presence of gamabufotalin by immunoblot analysis; assay type: functional, cell-based
[40] = test system: Hep 3B2; test: Induction of apoptosis in human Hep3B cells assessed as upregulation of caspase-3 level at 10 uM incubated for 48 hrs in presence of gamabufotalin by immunoblot analysis; assay type: functional, cell-based
[41] = test system: Hep 3B2; test: Induction of apoptosis in human Hep3B cells assessed as necrotic cells at 10 nM incubated for 48 hrs by Annexin V-FITC/PI staining based flow cytometry method (reference value: 0.7%); assay type: functional
[42] = test system: Huh-7; test: Induction of apoptosis in human Huh-7 cells assessed as upregulation of cleaved caspase-3 level at 10 uM incubated for 48 hrs in presence of gamabufotalin by immunoblot analysis; assay type: functional, cell-based

O=[N+]([O-])c1ccc(Nc2nc(N3CCOCC3)nc(N3CCOCC3)n2)cc1
Activity [1]: Active | viability at 0.01 µM [2]: 94% | Activity [3]: 0.7% | Activity [4]: 2.9% | Activity [5]: 6.6% | Activity [6]: 3.4% | Activity [7]: Active | Activity [8]: Active | viability at 0.01 µM [9]: 67.2% | Activity [10]: Active | Activity [11]: Active | Activity [12]: Active | Activity [13]: Active | Activity [14]: Active | Activity [15]: Active | Activity [16]: 2.5% | Activity [17]: Active | viability at 0.01 µM [18]: 92.6% | Activity [19]: 1.7% | Activity [20]: 3.8% | Activity [21]: Active | Activity [22]: Active | Activity [23]: Active | Activity [24]: Active | Activity [25]: 1.7% | Activity [26]: 10.9% | Activity [27]: Active | Activity [28]: Active | Activity [29]: 20.2% | Activity [30]: Active | Activity [31]: Active | Activity [32]: 14.9% | viability at 0.01 µM [33]: 76.8% | Activity [34]: Active | Activity [35]: Active | Activity [36]: Active | Activity [37]: Active | Activity [38]: Active | Activity [39]: Active | Activity [40]: Active | Activity [41]: 0.1% | Activity [42]: Active
